Measurements published in US3965103A, “4-Nitroperhydropyrido[1,2-a][1,4]diazepines” (Schering Aktiengesellschaft, priority 1973, dated 1976).
In brackets after ≈: the same amount, converted by molar mass. Read-outs that look alike come from different tables or passages of the source.

What was measured:
Trichoph. rubr. = assay: Tube Dilution Test in liquid media; type: cell-based
Description: (§1) The above mentioned greater activity against dermatophytes, yeasts and other fungi compared to "Bronopol" is illustrated in Table 1:
(§2) MIC (μg./ml.) in the Tube Dilution Test in liquid media

Microsp. gypseum = assay: Tube Dilution Test in liquid media; type: cell-based
Description: as §1, §2

Paecilomyc. = assay: Tube Dilution Test in liquid media; type: cell-based
Description: as §1, §2

Mucor. pus. = assay: Tube Dilution Test in liquid media; type: cell-based
Description: as §1, §2

Sacch. cer. = assay: Tube Dilution Test in liquid media; type: cell-based
Description: as §1, §2

Pen. notat. = assay: Tube Dilution Test in liquid media; type: cell-based
Description: as §1, §2

Asp. flav. = assay: Tube Dilution Test in liquid media; type: cell-based
Description: as §1, §2

Chaet. glob. = assay: Tube Dilution Test in liquid media; type: cell-based
Description: as §1, §2

Asp. nig. = assay: Tube Dilution Test in liquid media; type: cell-based
Description: as §1, §2

Asp. fum. = assay: Tube Dilution Test in liquid media; type: cell-based
Description: as §1, §2

Trichoph. ment. = assay: Tube Dilution Test in liquid media; type: cell-based
Description: as §1, §2

Candid. alb. = assay: Tube Dilution Test in liquid media; type: cell-based
Description: as §1, §2

Fusar. = assay: Tube Dilution Test in liquid media; type: cell-based
Description: as §1, §2

bacteria = details: known from U.S. Pat. No. 3,558,788; cited from earlier work
[1] = Sacch. cer., tube dilution test, liquid media, read-out: MIC

CN1CC2CCCCN2CC(Cc2ccccc2)([N+](=O)[O-])C1.Cl.Cl (centres unmarked) [4-Benzyl-2-methyl-4-nitroperhydropyrido[1,2-a] [1,4]-diazepine dihydrochloride]
MIC (Trichoph. rubr.): 2 µg/mL
MIC (Microsp. gypseum): 8 µg/mL
MIC (Paecilomyc.): 16 µg/mL
MIC (Mucor. pus.): 8 µg/mL
MIC (Sacch. cer.; [1]): 4 µg/mL
MIC (Pen. notat.): 125 µg/mL
MIC (Asp. flav.): 63 µg/mL
MIC (Chaet. glob.): 63 µg/mL
MIC (Asp. nig.): 125 µg/mL
MIC (Asp. fum.): 31 µg/mL
MIC (Trichoph. ment.): 4 µg/mL
MIC (Candid. alb.): 4 µg/mL

CCCCC1([N+](=O)[O-])CN(C)CC2CCCCN2C1.Cl.Cl (centres unmarked) [4-n-Butyl-2-methyl-4-nitroperhydropyrido[1,2-a] [1,4] diazepine dihydrochloride]
MIC (Trichoph. rubr.): 2 µg/mL
MIC (Microsp. gypseum): 8 µg/mL
MIC (Paecilomyc.): 63 µg/mL
MIC (Mucor. pus.): 2 µg/mL
MIC (Sacch. cer.; [1]): 4 µg/mL
MIC (Pen. notat.): 8 µg/mL
MIC (Asp. flav.): 4 µg/mL
MIC (Chaet. glob.): 8 µg/mL
MIC (Fusar.): 16 µg/mL
MIC (Asp. nig.): 31 µg/mL
MIC (Asp. fum.): 8 µg/mL
MIC (Trichoph. ment.): 2 µg/mL
MIC (Candid. alb.): 8 µg/mL

O=[N+]([O-])C(Br)(CO)CO [Bronopol, 2-bromo-2-nitropropane-1,3-diol, reference compound]
MIC (Trichoph. rubr.): 4 µg/mL (≈ 20 µM)
MIC (Microsp. gypseum): 16 µg/mL (≈ 80 µM)
MIC (Paecilomyc.): 250 µg/mL (≈ 1250 µM)
MIC (Mucor. pus.): 63 µg/mL (≈ 315 µM)
MIC (Sacch. cer.): 125 µg/mL (≈ 625 µM)
MIC (Pen. notat.): > 1000 µg/mL
MIC (Asp. flav.): > 1000 µg/mL
MIC (Chaet. glob.): > 1000 µg/mL
MIC (Asp. nig.): > 1000 µg/mL
MIC (Asp. fum.): 63 µg/mL (≈ 315 µM)
MIC (Trichoph. ment.): 8 µg/mL (≈ 40 µM)
MIC (Candid. alb.): 63 µg/mL (≈ 315 µM)
antibacterial activity (bacteria): has antibacterial activity
